Experiments:
[1] = molecular target: T1, human recombinant serotonin (5-Hydroxytryptamine) 5-HT6 receptor (Homo sapiens, UniProt P50406); assay: Serotonin 5-HT6 radioligand binding ([3H]LSD); details: compound at 1 μM; read-out: Serotonin (1 μM) 5-HT6, percent inhibition of specific binding
T1 construct: expressed in transfected cells; host or cells: human HeLa cells
In short: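 Human recombinant 5-HT6 receptor from HeLa cells incubated with 1.5 nM [3H]LSD for 120 min at 37° C in 50 mM Tris-HCl pH 7.4, 150 mM NaCl, 2 mM ascorbic acid, 0.001% BSA. Nonspecific binding defined with 5 μM serotonin; bound ligand counted after filtration.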

[2] = molecular target: T2, human recombinant adrenergic α1D receptor (Homo sapiens, UniProt P25100); assay: Adrenergic alpha1D radioligand binding ([3H]Prozosin); details: compound at 1 μM; read-out: Adrenergic (1 μM) α1D, percent inhibition of specific binding
T2 construct: expressed in transfected cells; host or cells: HEK-293 cells
T2 sequence (P25100 1-572): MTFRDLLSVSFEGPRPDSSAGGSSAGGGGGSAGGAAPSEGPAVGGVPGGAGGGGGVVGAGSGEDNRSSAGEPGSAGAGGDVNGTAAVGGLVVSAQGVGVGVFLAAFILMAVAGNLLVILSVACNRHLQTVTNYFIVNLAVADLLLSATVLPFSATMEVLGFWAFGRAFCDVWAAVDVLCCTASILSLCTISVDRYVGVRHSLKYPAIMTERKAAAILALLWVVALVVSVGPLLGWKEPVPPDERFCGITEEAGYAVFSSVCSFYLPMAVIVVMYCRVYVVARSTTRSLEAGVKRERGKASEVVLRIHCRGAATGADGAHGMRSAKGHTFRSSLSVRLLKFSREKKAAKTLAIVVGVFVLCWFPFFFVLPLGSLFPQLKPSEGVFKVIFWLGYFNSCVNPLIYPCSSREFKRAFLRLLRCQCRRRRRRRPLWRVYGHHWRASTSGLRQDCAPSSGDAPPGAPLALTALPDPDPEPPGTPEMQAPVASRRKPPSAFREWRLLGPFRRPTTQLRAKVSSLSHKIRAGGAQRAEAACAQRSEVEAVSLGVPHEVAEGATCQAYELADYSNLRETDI
Method: To evaluate in radioligand binding assays the activity of compounds of the invention, human recombinant adrenergic α1D receptor expressed in human embryonic kidney (HEK-293) cells (Kenny, B. A. et al. Br. J. Pharmacol. 115(6):981, 1995) in a 50 mM Tris-HCl buffer, pH 7.4, was used. Compounds of invention were incubated with 0.6 nM [^3H]Prozosin for 60 min. at 25° C. Non-specific binding was estimated in the presence of 10 μM phentolamine. Receptor proteins were filtered and washed, the filters were then counted to determine [^3H]Prozosin specifically bound. Compounds were screened at 1 μM or lower, using 1% DMSO as vehicle. Biochemical assay results are presented as the percent inhibition of specific binding in Table 5.

[3] = molecular target: T3, human recombinant serotonin (5-Hydroxytryptamine) 5-HT2C receptor (Homo sapiens, UniProt P28335); assay: Serotonin 5-HT2C radioligand binding ([3H]Mesulergine); details: compound at 1 μM; read-out: Serotonin (1 μM) 5-HT2C, percent inhibition of specific binding
T3 construct: expressed in transfected cells; host or cells: CHO-K1 cells
T3 sequence (P28335 33-458): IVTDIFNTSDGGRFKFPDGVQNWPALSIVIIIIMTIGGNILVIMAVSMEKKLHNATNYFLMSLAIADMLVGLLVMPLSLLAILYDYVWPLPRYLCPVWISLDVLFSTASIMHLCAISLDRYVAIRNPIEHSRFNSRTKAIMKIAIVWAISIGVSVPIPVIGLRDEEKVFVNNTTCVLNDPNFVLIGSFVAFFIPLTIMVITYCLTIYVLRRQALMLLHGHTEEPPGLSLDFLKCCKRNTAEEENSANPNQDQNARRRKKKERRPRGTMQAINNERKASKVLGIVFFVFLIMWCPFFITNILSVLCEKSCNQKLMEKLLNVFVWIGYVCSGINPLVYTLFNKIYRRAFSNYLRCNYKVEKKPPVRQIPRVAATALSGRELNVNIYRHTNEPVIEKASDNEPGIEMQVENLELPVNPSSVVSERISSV
In short: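 Membranes from CHO-K1 cells expressing human 5-HT2C, incubated with 1 nM [3H]mesulergine for 60 min at 25 °C in 50 mM Tris-HCl pH 7.4 with ascorbic acid and pargyline.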

T1 sequence (P50406 whole entry): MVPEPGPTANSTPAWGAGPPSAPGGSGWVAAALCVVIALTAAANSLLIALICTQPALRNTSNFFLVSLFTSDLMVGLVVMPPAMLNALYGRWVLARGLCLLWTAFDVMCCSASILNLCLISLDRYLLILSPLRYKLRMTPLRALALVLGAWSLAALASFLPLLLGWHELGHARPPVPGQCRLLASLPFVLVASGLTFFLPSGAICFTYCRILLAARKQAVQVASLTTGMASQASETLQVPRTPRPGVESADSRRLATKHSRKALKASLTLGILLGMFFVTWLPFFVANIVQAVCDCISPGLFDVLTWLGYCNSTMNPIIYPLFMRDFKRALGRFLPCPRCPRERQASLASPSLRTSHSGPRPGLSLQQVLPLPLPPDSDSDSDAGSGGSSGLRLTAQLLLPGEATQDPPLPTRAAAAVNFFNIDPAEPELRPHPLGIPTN

| Structure (SMILES) | inhibition at 1 µM [1] | inhibition at 1 µM [2] | inhibition at 1 µM [3] |
| --- | --- | --- | --- |
| COc1ccc(C(O)Cn2c3c(c4cc(Cl)ccc42)CCN(C)CC3)c(F)c1 (stereo not drawn) [Compound No. 49, 2-(9-chloro-2,3,4,5-tetrahydro-3-methylazepino[4,5-b]indol-6(1H)-yl)-1-(2-fluoro-4-methoxyphenyl) ethanol] | 88% | 71% | 98% |
| COc1ccc(C(O)Cn2c3c(c4cc(C)ccc42)CCN(C)CC3)c(F)c1 (stereo not drawn) [Compound No. 50, 1-(2-fluoro-4-methoxyphenyl)-2-(2,3,4,5-tetrahydro-3,9-dimethylazepino[4,5-b]indol-6(1H)-yl)ethanol] | 88% | 84% | 95% |
| CN1CCc2c(n(CC(O)c3ccc(F)cc3)c3ccc(Cl)cc23)CC1 (stereo not drawn) [Compound No. 51, 2-(9-chloro-2,3,4,5-tetrahydro-3-methylazepino[4,5-b]indol-6(1H)-yl)-1-(4-fluorophenyl) ethanol] | 94% | 85% | 98% |
| Cc1ccc2c(c1)c1c(n2CC(O)c2ccc(F)cc2)CCN(C)CC1 (stereo not drawn) [Compound No. 52, 1-(4-fluorophenyl)-2-(2,3,4,5-tetrahydro-3,9-dimethylazepino[4,5-b]indol-6(1H)-yl)ethanol] | 84% | 91% | 96% |
| CN1CCc2c(n(CC(=O)N3CCCC3)c3ccc(Cl)cc23)CC1 [Compound No. 53, 2-(9-chloro-2,3,4,5-tetrahydro-3-methylazepino[4,5-b]indol-6(1H)-yl)-1-(pyrrolidin-1-yl)ethanone] | -1% | 13% | 32% |
| Cc1ccc2c(c1)c1c(n2CC(=O)NC(C)C)CCN(C)CC1 [Compound No. 54, 2-(2,3,4,5-tetrahydro-3,9-dimethylazepino[4,5-b]indol-6(1H)-yl)-N-isopropylacetamide] | -10% | -1% | -2% |
| Cc1ccc2c(c1)c1c(n2CC(=O)OC2CCCC2)CCN(C)CC1 [Compound No. 55, Cyclopentyl-2-(2,3,4,5-tetrahydro-3,9-dimethylazepino[4,5-b]indol-6(1H)-yl)acetate] | 4% | 8% | 32% |
| CN1CCc2c(n(CCc3ccccc3)c3ccc(Cl)cc23)CC1 [Compound No. 56, 9-chloro-1,2,3,4,5,6-hexahydro-3-methyl-6-phenethylazepino[4,5-b]indole] | 104% | 83% | 95% |
| CN1CCc2c(n(CC(=O)N3CCCCC3)c3ccc(Cl)cc23)CC1 [Compound No. 57, 2-(9-chloro-2,3,4,5-tetrahydro-3-methylazepino[4,5-b]indol-6(1H)-yl)-1-(piperidin-1-yl)ethanone] | -1% | -7% | 65% |
| CN1CCc2c(n(CC(O)c3ccc(F)c(F)c3)c3ccc(Cl)cc23)CC1 (stereo not drawn) [Compound No. 58, 2-(9-chloro-2,3,4,5-tetrahydro-3-methylazepino[4,5-b]indol-6(1H)-yl)-1-(3,4-difluorophenyl)ethanol] | 99% | 88% | 16% |
| Cc1ccc2c(c1)c1c(n2CC(O)c2ccc(F)cc2F)CCN(C)CC1 (stereo not drawn) [Compound No. 59, 1-(2,4-difluorophenyl)-2-(2,3,4,5-tetrahydro-3,9-dimethylazepino[4,5-b]indol-6(1H)-yl)ethanol] | 97% | 73% | -3% |
| CN1CCc2c(n(CC(=O)N3CCOCC3)c3ccc(Cl)cc23)CC1 [Compound No. 60, 2-(9-chloro-2,3,4,5-tetrahydro-3-methylazepino[4,5-b]indol-6(1H)-yl)-1-morpholinoethanone] | 3% | -1% | -5% |
| CN1CCc2c(n(CCc3ccccc3F)c3ccc(Cl)cc23)CC1 [Compound No. 61, 6-(2-fluorophenethyl)-9-chloro-1,2,3,4,5,6-hexahydro-3-methylazepino[4,5-b]indole] | 5% | -5% | 89% |
| Cc1ccc2c(c1)c1c(n2CCc2ccccc2)CCN(C)CC1 [Compound No. 62, 1,2,3,4,5,6-hexahydro-3,9-dimethyl-6-phenethylazepino[4,5-b]indole] | -4% | 12% | 101% |
| Cc1ccc2c(c1)c1c(n2CCc2ccccc2F)CCN(C)CC1 [Compound No. 63, 6-(2-fluorophenethyl)-1,2,3,4,5,6-hexahydro-3,9-dimethylazepino[4,5-b]indole] | 101% | 77% | 5% |
| COc1ccc(C(O)Cn2c3c(c4cc(Cl)ccc42)CCN(C)CC3)cc1F (stereo not drawn) [Compound No. 67, 2-(9-chloro-2,3,4,5-tetrahydro-3-methylazepino[4,5-b]indol-6(1H)-yl)-1-(3-fluoro-4-methoxyphenyl) ethanol] | 86% | 90% | 93% |
| COc1ccc(C(O)Cn2c3c(c4cc(C)ccc42)CCN(C)CC3)cc1F (stereo not drawn) [Compound No. 68, 1-(3-fluoro-4-methoxyphenyl)-2-(2,3,4,5-tetrahydro-3,9-dimethylazepino[4,5-b]indol-6(1H)-yl)ethanol] | 87% | 93% | 95% |
| Cc1ccc2c(c1)c1c(n2CCc2ccccc2Cl)CCN(C)CC1 [Compound No. 69, 6-(2-chlorophenethyl)-1,2,3,4,5,6-hexahydro-3,9-dimethylazepino[4,5-b]indole] | -4% | -5% | -1% |
| CN1CCc2c(n(CC(=O)N3CCNCC3)c3ccc(Cl)cc23)CC1 [Compound No. 72, 2-(9-chloro-2,3,4,5-tetrahydro-3-methylazepino[4,5-b]indol-6(1H)-yl)-1-(piperazin-1-yl)ethanone] | 39% | 17% | 53% |
| CN1CCc2c(n(CC(=O)Nc3ccccc3)c3ccc(Cl)cc23)CC1 [Compound No. 73, 2-(9-chloro-2,3,4,5-tetrahydro-3-methylazepino[4,5-b]indol-6(1H)-yl)-N-phenylacetamide] | 0% | 1% | 11% |
| CN1CCc2c(n(CC(=O)N(C)C3CCCCC3)c3ccc(Cl)cc23)CC1 [Compound No. 74, 2-(9-chloro-2,3,4,5-tetrahydro-3-methylazepino[4,5-b]indol-6(1H)-yl)-N-cyclohexyl-N-methylacetamide] | -4% | 17% | 1% |
| CN1CCc2c(n(CC(=O)OCc3ccccc3)c3ccc(Cl)cc23)CC1 [Compound No. 75, Benzyl-2-(9-chloro-2,3,4,5-tetrahydro-3-methylazepino[4,5-b]indol-6(1H)-yl)acetate] | -2% | 7% | 13% |
| Cc1ccc2c(c1)c1c(n2/C=C/c2ccccc2)CCN(C)CC1 [Compound No. 229, (E)-3,9-dimethyl-6-styryl-1,2,3,4,5,6-hexahydroazepino[4,5-b]indole] | 102% | 97% | 98% |
